Measured values reported in patent publication US20150105252A1, “SUBSTITUTED PYRAZOLES AS HERBICIDES” (E I DU PONT DE NEMOURS AND COMPANY, priority 2013, published 2015).

Columns and labels:
blackgrass = assay: Test D postemergence; format: in vivo, Alopecurus myosuroides; settings: scale 0 to 100
In short: (§1)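 Visual 0–100 control ratings at 14–21 days in a controlled growth environment. Application preemergence onto silt loam or postemergence onto 2–18 cm seedlings, using a non-phytotoxic solvent formulation with surfactant.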

wheat, spring = assay: Test D preemergence; format: in vivo, Triticum aestivum; settings: for Plant response rating, Wheat, Spring: Preemergence, scale 0 to 100
In short: as §1

wheat, winter = assay: Test D preemergence; format: in vivo, Triticum aestivum; settings: for Plant response rating, Wheat, Winter: Preemergence, scale 0 to 100
In short: as §1

windgrass = assay: Test D preemergence; format: in vivo, Apera spica-venti; settings: for Plant response rating, Windgrass: Preemergence, scale 0 to 100
In short: as §1

deadnettle = assay: Test D postemergence; format: in vivo, Lamium amplexicaule; settings: scale 0 to 100
In short: as §1

speedwell [1] = assay: Test D postemergence; format: in vivo, Veronica persica; settings: scale 0 to 100
In short: as §1

speedwell [2] = assay: Test D preemergence; format: in vivo, Veronica persica; settings: for Plant response rating, Speedwell: Preemergence, scale 0 to 100
In short: as §1

buckwheat, wild = assay: Test D postemergence; format: in vivo, Polygonum convolvulus; settings: scale 0 to 100
In short: as §1

kochia [3] = assay: Test D postemergence; format: in vivo, Kochia scoparia; settings: scale 0 to 100
In short: as §1

oilseed rape = assay: Test D preemergence; format: in vivo, Brassica napus; settings: for Plant response rating, Oilseed Rape: Preemergence, scale 0 to 100
In short: as §1

barley, spring = assay: Test D postemergence; format: in vivo, Hordeum vulgare; settings: scale 0 to 100
In short: as §1

barley, winter = assay: Test D postemergence; format: in vivo, Hordeum vulgare; settings: scale 0 to 100
In short: as §1

chickweed = assay: Test D preemergence; format: in vivo, Stellaria media; settings: for Plant response rating, Chickweed: Preemergence, scale 0 to 100
In short: as §1

bluegrass = assay: Test D preemergence; format: in vivo, Poa annua; settings: for Plant response rating, Bluegrass: Preemergence, scale 0 to 100
In short: as §1

chamomile [4] = assay: Test D preemergence; format: in vivo, Matricaria inodora; settings: for Plant response rating, Chamomile: Preemergence, scale 0 to 100
In short: as §1

kochia [5] = assay: Test D preemergence; format: in vivo, Kochia scoparia; settings: for Plant response rating, Kochia: Preemergence, scale 0 to 100
In short: as §1

chamomile [6] = assay: Test D postemergence; format: in vivo, Matricaria inodora; settings: scale 0 to 100
In short: as §1

field violet = assay: Test D preemergence; format: in vivo, Viola arvensis; settings: for Plant response rating, Field Violet: Preemergence, scale 0 to 100
In short: as §1

bromegrass, downy = assay: Test D postemergence; format: in vivo, Bromus tectorum; settings: scale 0 to 100
In short: as §1

galium = assay: Test D preemergence; format: in vivo, Galium aparine; settings: Preemergence, scale 0 to 100
Excerpt: Seeds of plant species selected from bluegrass (annual bluegrass, Poa annua), blackgrass (Alopecurus myosuroides), canarygrass (littleseed canarygrass, Phalaris minor), chickweed (common chickweed, Stellaria media), galium (catchweed bedstraw, Galium aparine), bromegrass, downy (downy bromegrass, Bromus tectorum), field poppy (Papaver rhoeas), field violet (Viola arvensis), foxtail, green (green foxtail, Setaria viridis), deadnettle (henbit deadnettle, Lamium amplexicaule), ryegrass, Italian (Italian ryegrass, Lolium multiflorum), kochia (Kochia scoparia), lambsquarters (Chenopodium album), oilseed rape (Brassica napus), pigweed (redroot pigweed, Amaranthus retroflexus), chamomile (scentless chamomile, Matricaria inodora), speedwell (bird's-eye speedwell, Veronica persica), barley, spring (spring barley, Hordeum vulgare), wheat, spring (spring wheat, Triticum aestivum), buckwheat, wild (wild buckwheat, Polygonum convolvulus), mustard, wild (wild mustard, Sinapis arvensis), oat, wild (wild oat, Avena fatua), radish, wild (wild radish, Raphanus raphanistrum), windgrass (Apera spica-venti), Russian thistle (Salsola kali), barley, winter (winter barley, Hordeum vulgare), and wheat, winter (winter wheat, Triticum aestivum) were planted into a silt loam soil and treated preemergence with test chemicals formulated in a non-phytotoxic solvent mixture which included a surfactant.
At the same time, these species were planted in pots containing Redi-Earth® planting medium (Scotts Company, 14111 Scottslawn Road, Marysville, Ohio 43041) comprising spaghnum peat moss, vermiculite, wetting agent and starter nutrients and treated with postemergence applications of the test chemicals formulated in the same manner. Plants ranged in height from 2 to 18 cm (1- to 4-leaf stage). Treated plants and controls were maintained in a controlled growth environment for 14 to 21 days after which time all species were compared to controls and visually evaluated. Plant response ratings, summarized in Table D, are based on a scale of 0 to 100 where 0 is no effect and 100 is complete control. A dash (-) response means no test result.

field poppy = assay: Test D preemergence; format: in vivo, Papaver rhoeas; settings: for Plant response rating, Field Poppy: Preemergence, scale 0 to 100
In short: as §1

[7] = 16 g ai/ha, taken as preemergence

For `O=C(NC1CC1)c1cc(CCF)n(Cc2ccnc(C(F)(F)F)c2)n1` [Compound 176], the “Plant response rating, Blackgrass” value (blackgrass; Postemergence, 16 g ai/ha) was 5, the “Blackgrass plant response rating” value (blackgrass; Postemergence, 31 g ai/ha) was 15 and the “Blackgrass plant response rating” value (blackgrass; Postemergence, 125 g ai/ha) was 20. The “Blackgrass plant response rating” value (blackgrass; postemergence, 62 g ai/ha) was 15, the “Plant response rating (scale 0 to 100), Wheat, Spring” value (wheat, spring; [7]) was 0 and the “Plant response rating, Wheat, Spring” value (wheat, spring; 62 g ai/ha) was 0. For the same compound, the “Plant response rating, Wheat, Spring” value (wheat, spring; 125 g ai/ha) was 5, the “Plant response rating (scale 0 to 100), Wheat, Winter” value (wheat, winter; [7]) was 0 and the “Plant response rating, Wheat, Winter” value (wheat, winter; 62 g ai/ha) was 0. The “Plant response rating, Wheat, Winter” value (wheat, winter; 125 g ai/ha) was 5, the “Plant response rating (scale 0 to 100), Windgrass” value (windgrass; [7]) was 0 and the “Plant response rating, Windgrass” value (windgrass; 62 g ai/ha) was 10. For the same compound, the “Plant response rating, Windgrass” value (windgrass; 125 g ai/ha) was 40, the “Plant response rating, Deadnettle” value (deadnettle; Postemergence, 16 g ai/ha) was 10 and the “Deadnettle plant response rating” value (deadnettle; Postemergence, 31 g ai/ha) was 35. The “Deadnettle plant response rating” value (deadnettle; Postemergence, 125 g ai/ha) was 45, the “Deadnettle plant response rating” value (deadnettle; postemergence, 62 g ai/ha) was 35 and the “Plant response rating, Speedwell” value (speedwell [1]; Postemergence, 16 g ai/ha) was 50. For the same compound, the “Speedwell plant response rating” value (speedwell [1]; Postemergence, 31 g ai/ha) was 70, the “Speedwell plant response rating” value (speedwell [1]; Postemergence, 125 g ai/ha) was 70 and the “Speedwell plant response rating” value (speedwell [1]; postemergence, 62 g ai/ha) was 70. For the same compound, the “Plant response rating (scale 0 to 100), Speedwell” value (speedwell [2]; [7]) was 15, the “Plant response rating, Speedwell” value (speedwell [2]; 62 g ai/ha) was 100 and the “Plant response rating, Speedwell” value (speedwell [2]; 125 g ai/ha) was 100. For the same compound, the “Plant response rating, Buckwheat, Wild” value (buckwheat, wild; Postemergence, 16 g ai/ha) was 30, the “Buckwheat, Wild plant response rating” value (buckwheat, wild; Postemergence, 31 g ai/ha) was 55 and the “Buckwheat, Wild plant response rating” value (buckwheat, wild; Postemergence, 125 g ai/ha) was 65. The “Buckwheat, Wild plant response rating” value (buckwheat, wild; postemergence, 62 g ai/ha) was 55, the “Plant response rating, Kochia” value (kochia [3]; Postemergence, 16 g ai/ha) was 30 and the “Kochia plant response rating” value (kochia [3]; Postemergence, 31 g ai/ha) was 65. The “Kochia plant response rating” value (kochia [3]; Postemergence, 125 g ai/ha) was 70, the “Kochia plant response rating” value (kochia [3]; postemergence, 62 g ai/ha) was 65 and the “Plant response rating (scale 0 to 100), Oilseed Rape” value (oilseed rape; [7]) was 0. The “Plant response rating, Oilseed Rape” value (oilseed rape; 62 g ai/ha) was 35, the “Plant response rating, Oilseed Rape” value (oilseed rape; 125 g ai/ha) was 65 and the “Barley, Spring plant response rating” value (barley, spring; Postemergence, 16 g ai/ha) was 0. The “Barley, Spring plant response rating” value (barley, spring; Postemergence, 31 g ai/ha) was 10, the “Barley, Spring plant response rating” value (barley, spring; Postemergence, 125 g ai/ha) was 15 and the “Barley, Spring plant response rating” value (barley, spring; postemergence, 62 g ai/ha) was 10. For the same compound, the “Barley, Winter plant response rating” value (barley, winter; Postemergence, 16 g ai/ha) was 0, the “Barley, Winter plant response rating” value (barley, winter; Postemergence, 31 g ai/ha) was 10 and the “Barley, Winter plant response rating” value (barley, winter; Postemergence, 125 g ai/ha) was 20. The “Barley, Winter plant response rating” value (barley, winter; postemergence, 62 g ai/ha) was 10, the “Plant response rating (scale 0 to 100), Chickweed” value (chickweed; [7]) was 10 and the “Plant response rating, Chickweed” value (chickweed; 31 g ai/ha) was 50. The “Plant response rating, Chickweed” value (chickweed; 62 g ai/ha) was 85, the “Plant response rating, Chickweed” value (chickweed; 125 g ai/ha) was 100 and the “Plant response rating (scale 0 to 100), Bluegrass” value (bluegrass; [7]) was 0. For the same compound, the “Plant response rating, Bluegrass” value (bluegrass; 31 g ai/ha) was 0, the “Plant response rating, Bluegrass” value (bluegrass; 62 g ai/ha) was 10 and the “Plant response rating, Bluegrass” value (bluegrass; 125 g ai/ha) was 20. For the same compound, the “Plant response rating (scale 0 to 100), Chamomile” value (chamomile [4]; [7]) was 5, the “Plant response rating, Chamomile” value (chamomile [4]; 31 g ai/ha) was 5 and the “Plant response rating, Chamomile” value (chamomile [4]; 62 g ai/ha) was 10. For the same compound, the “Plant response rating, Chamomile” value (chamomile [4]; 125 g ai/ha) was 50, the “Plant response rating (scale 0 to 100), Kochia” value (kochia [5]; [7]) was 5 and the “Plant response rating, Kochia” value (kochia [5]; 62 g ai/ha) was 45. For the same compound, the “Plant response rating, Kochia” value (kochia [5]; 125 g ai/ha) was 100, the “Plant response rating, Chamomile” value (chamomile [6]; Postemergence, 16 g ai/ha) was 10 and the “Chamomile plant response rating” value (chamomile [6]; Postemergence, 31 g ai/ha) was 15. The “Chamomile plant response rating” value (chamomile [6]; Postemergence, 125 g ai/ha) was 35, the “Chamomile plant response rating” value (chamomile [6]; postemergence, 62 g ai/ha) was 15 and the “Plant response rating (scale 0 to 100), Field Violet” value (field violet; [7]) was 0. For the same compound, the “Plant response rating, Field Violet” value (field violet; 62 g ai/ha) was 50, the “Plant response rating, Field Violet” value (field violet; 125 g ai/ha) was 65 and the “Plant response rating, Bromegrass, Downy” value (bromegrass, downy; Postemergence, 16 g ai/ha) was 10. For the same compound, the “Bromegrass, Downy plant response rating” value (bromegrass, downy; Postemergence, 31 g ai/ha) was 25, the “Bromegrass, Downy plant response rating” value (bromegrass, downy; Postemergence, 125 g ai/ha) was 30 and the “Bromegrass, Downy plant response rating” value (bromegrass, downy; postemergence, 62 g ai/ha) was 25. For the same compound, the “Plant response rating, Galium” value (galium; 62 g ai/ha) was 60, the “Plant response rating, Galium” value (galium; 125 g ai/ha) was 85 and the “Plant response rating (scale 0 to 100), Field Poppy” value (field poppy; [7]) was 10. The “Plant response rating, Field Poppy” value (field poppy; 62 g ai/ha) was 55 and the “Plant response rating, Field Poppy” value (field poppy; 125 g ai/ha) was 100.
